The values that follow are results of earlier work, collected in patent US20070258969A1, “Compositions and methods for targeting metastatic tumors using multivalent ligand-linked carbohydrate polymers” (priority 2004, published 2007).

Series [1] deals with L-1 sarcoma cells. Conditions: in vivo.
Series [2] has as its system B16 melanoma cells. Conditions: in vivo.

Regarding `O=C[C@H](O)[C@@H](O)[C@@H](O)[C@H](O)CO` [D-galactose], in series [1], the “liver metastasis of L-1 sarcoma cells” value is on record as “inhibited liver metastasis”.
In the case of `CC(=O)N[C@H]1[C@H](O[C@H]2[C@@H](O)[C@@H](CO)O[C@@H](O[C@H]3[C@H](O)[C@@H](O)C(O)O[C@@H]3CO)[C@@H]2O)O[C@H](CO)[C@@H](O)[C@@H]1O[C@@H]1O[C@H](CO)[C@H](O)[C@H](O)[C@H]1O` (stereo partly shown) [lacto-N-tetrose], the “metastasis of B16 melanoma cells” value in series [2] is recorded as “inhibit metastasis”.
Turning to `CO[C@H]1O[C@H](CO)[C@@H](O[C@@H]2O[C@H](CO)[C@H](O)[C@H](O)[C@H]2O)[C@H](O)[C@H]1O` [methyl-α-D-lactoside], in series [2], the “metastasis of B16 melanoma cells” value is recorded as “inhibit metastasis”.
As to arabinogalactose, the “liver metastasis of L-1 sarcoma cells” value in series [1] is “inhibited liver metastasis”.
